According to ChEMBL document CHEMBL4715696, “In vitro synergistic anticancer activity of the combination of T-type calcium channel blocker and chemotherapeutic agent in A549 cells” (Bioorg Med Chem Lett, 2016):

Experiments:
[1] = test system: A549; assay: Decrease in cell cycle associated protein expression in human A549 cells assessed as fold change in CDK4 expression at 10 uM after 48 hrs by Western blot analysis (reference value: 0.62 to 0.87); format: functional
[2] = test system: A549; assay: Decrease in cell cycle associated protein expression in human A549 cells assessed as fold change in cyclin D2 expression at 10 uM after 6 hrs by Western blot analysis (reference value: 0.77); format: functional
[3] = test system: A549; assay: Decrease in cell cycle associated protein expression in human A549 cells assessed as fold change in CDK6 expression at 10 uM after 48 hrs by Western blot analysis (reference value: 0.7 to 1.05); format: functional
[4] = Metabolic stability in rat plasma assessed as parent compound remaining at 10 uM measured after 30 mins; format: ADME, cell-free; conditions: read-out: Stabilty
[5] = test system: A549; assay: Decrease in cell cycle associated protein expression in human A549 cells assessed as fold change in CDK6 expression at 10 uM after 12 hrs by Western blot analysis (reference value: 0.7); format: functional
[6] = test system: A549; assay: Potentiation of cisplatin-induced cell cycle arrest in human A549 cells assessed as accumulation at G2/M phase at 5 uM in presence of cisplatin after 48 hrs by flow cytometric analysis (Rvb =52.9%); format: functional
[7] = test system: A549; assay: Potentiation of cisplatin-induced cell cycle arrest in human A549 cells assessed as accumulation at sub G1 phase at 5 uM in presence of cisplatin after 48 hrs by flow cytometric analysis (reference value: 17%); format: functional
[8] = test system: A549; assay: Induction of cell cycle arrest in human A549 cells assessed as accumulation at sub G1 phase at 5 uM after 24 hrs by flow cytometric analysis (reference value: 7.8%); format: functional
[9] = Protein binding in human plasma at 10 uM after 4 hrs; format: ADME, cell-free; conditions: read-out: PPB (converted)
[10] = test system: A549; assay: Decrease in cell cycle associated protein expression in human A549 cells assessed as fold change in cyclin D2 expression at 5 uM after 48 hrs by Western blot analysis (reference value: 0.46); format: functional
[11] = test system: A549; assay: Induction of cell cycle arrest in human A549 cells assessed as accumulation at S phase at 5 uM after 24 hrs by flow cytometric analysis (reference value: 17.6%); format: functional
[12] = biological target: CYP3A4 (Homo sapiens, UniProt P08684); assay: Inhibition of human CYP3A4 assessed as residual activity at 10 uM measured after 15 mins relative to control; format: ADME; conditions: read-out: Activity
[13] = test system: A549; assay: Induction of cell cycle arrest in human A549 cells assessed as accumulation at S phase at 10 uM after 48 hrs by flow cytometric analysis (reference value: 10.4%); format: functional
[14] = test system: A549; assay: Decrease in cell cycle associated protein expression in human A549 cells assessed as fold change in CDK4 expression at 10 uM after 12 hrs by Western blot analysis (reference value: 0.87); format: functional
[15] = test system: A549; assay: Decrease in cell cycle associated protein expression in human A549 cells assessed as fold change in cyclin D3 expression at 10 uM after 6 hrs by Western blot analysis (reference value: 1.09); format: functional
[16] = test system: A549; assay: Decrease in cell cycle associated protein expression in human A549 cells assessed as fold change in cyclin D3 expression at 10 uM after 12 hrs by Western blot analysis (reference value: 1.09); format: functional
[17] = test system: A549; assay: Potentiation of etoposide-induced cell cycle arrest in human A549 cells assessed as accumulation at S phase at 5 uM in presence of etoposide after 48 hrs by flow cytometric analysis (Rvb =12.3%); format: functional
[18] = test system: A549; assay: Decrease in cell cycle associated protein expression in human A549 cells assessed as fold change in cyclin D2 expression at 10 uM after 36 hrs by Western blot analysis (reference value: 0.77); format: functional
[19] = test system: A549; assay: Potentiation of cisplatin-induced cell cycle arrest in human A549 cells assessed as accumulation at G2/M phase at 10 uM in presence of cisplatin after 48 hrs by flow cytometric analysis (Rvb =52.9%); format: functional
[20] = test system: A549; assay: Decrease in cell cycle associated protein expression in human A549 cells assessed as fold change in cyclin E expression at 10 uM after 48 hrs by Western blot analysis (reference value: 0.37 to 0.55); format: functional
[21] = test system: A549; assay: Potentiation of etoposide-induced apoptosis in human A549 cells assessed as late apoptotic cells at 10 uM incubated for 48 hrs by AnnexinV-FITC/propidium iodide staining based flow cytometry (reference value: 12.6%); format: functional
[22] = Metabolic stability in rat liver microsomes assessed as parent compound remaining at 1 uM measured for 30 mins; format: ADME, Microsome; conditions: read-out: Stabilty
[23] = test system: A549; assay: Induction of cell cycle arrest in human A549 cells assessed as decrease in cell accumulation at S phase after 48 hrs by flow cytometric analysis; format: functional, cell-based; conditions: dose 2.5-10 µM
[24] = Protein binding in rat plasma at 10 uM after 4 hrs; format: ADME, cell-free; conditions: read-out: PPB (converted)
[25] = test system: A549; assay: Decrease in cell cycle associated protein expression in human A549 cells assessed as fold change in CDK6 expression at 10 uM after 36 hrs by Western blot analysis (reference value: 0.7); format: functional
[26] = test system: A549; assay: Decrease in cell cycle associated protein expression in human A549 cells assessed as fold change in CDK4 expression at 2.5 uM after 48 hrs by Western blot analysis (reference value: 0.62); format: functional
[27] = Upregulation of p27KIP1 protein expression in human A549 cells assessed as fold change in expression at 10 uM after 48 hrs by Western blot analysis (reference value: 0.48 to 0.83); format: functional
[28] = Metabolic stability in rat plasma assessed as parent compound remaining at 10 uM measured after 1 hr; format: ADME, cell-free; conditions: read-out: Stabilty
[29] = test system: A549; assay: Decrease in cell cycle associated protein expression in human A549 cells assessed as reduction in CDK6 expression at 10 uM by Western blot analysis; format: functional, cell-based; conditions: time 6-48 hrs, TDE = time-dependent effect
[30] = test system: A549; assay: Induction of cell cycle arrest in human A549 cells assessed as accumulation at G1 phase at 10 uM after 48 hrs by flow cytometric analysis (reference value: 65.5%); format: functional
[31] = test system: A549; assay: Potentiation of etoposide-induced cell cycle arrest in human A549 cells assessed as accumulation at sub G1 phase at 10 uM in presence of etoposide after 48 hrs by flow cytometric analysis (Rvb =33 %); format: functional
[32] = test system: A549; assay: Decrease in cell cycle associated protein expression in human A549 cells assessed as fold change in cyclin E expression at 10 uM after 12 hrs by Western blot analysis (reference value: 0.55); format: functional
[33] = test system: A549; assay: Decrease in cell cycle associated protein expression in human A549 cells assessed as reduction in CDK2 expression after 48 hrs by Western blot analysis; format: functional, cell-based; conditions: dose 2.5-10 µM
[34] = test system: A549; assay: Decrease in cell cycle associated protein expression in human A549 cells assessed as fold change in cyclin D3 expression at 2.5 uM after 48 hrs by Western blot analysis (reference value: 0.73); format: functional
[35] = test system: A549; assay: Induction of cell cycle arrest in human A549 cells assessed as accumulation at S phase at 2.5 uM after 48 hrs by flow cytometric analysis (Rvb =10.4%); format: functional
[36] = test system: A549; assay: Potentiation of etoposide-induced cell cycle arrest in human A549 cells assessed as accumulation at S phase at 10 uM in presence of etoposide after 48 hrs by flow cytometric analysis (Rvb =12.3%); format: functional

CYP3A4, sequence (P08684 whole entry): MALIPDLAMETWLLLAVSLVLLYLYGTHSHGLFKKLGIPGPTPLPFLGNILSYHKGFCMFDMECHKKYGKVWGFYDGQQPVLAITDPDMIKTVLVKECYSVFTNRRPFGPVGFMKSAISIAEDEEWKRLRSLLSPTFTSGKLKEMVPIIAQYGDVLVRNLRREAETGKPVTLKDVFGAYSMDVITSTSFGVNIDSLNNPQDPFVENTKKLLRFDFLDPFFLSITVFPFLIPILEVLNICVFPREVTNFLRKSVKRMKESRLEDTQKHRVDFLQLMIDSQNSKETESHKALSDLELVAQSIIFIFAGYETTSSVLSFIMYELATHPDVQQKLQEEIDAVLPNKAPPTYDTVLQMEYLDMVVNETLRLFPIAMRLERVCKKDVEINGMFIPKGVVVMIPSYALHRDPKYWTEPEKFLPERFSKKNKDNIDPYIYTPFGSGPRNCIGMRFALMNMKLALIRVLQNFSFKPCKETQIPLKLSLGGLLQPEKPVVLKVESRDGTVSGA

CN(C)C(=O)NCCCN(C)C1=Nc2ccccc2C(CC(=O)NCc2ccc(F)cc2)N1c1ccc(C2CCCCC2)cc1 (stereo unspecified)
fold change (FC) [1]: 0.46 | fold change (FC) [2]: 0.86 | fold change (FC) [3]: 0.14 | remaining at 0.5 h, 10 µM [4]: 49.4% | fold change (FC) [5]: 0.64 | Activity [6]: 33.9% | Activity [7]: 24.8% | Activity [8]: 4.7% | fraction unbound at 4 h, 10 µM [9]: < 0.01 | fold change (FC) [10]: 0.52 | Activity [11]: 12.4% | activity at 0.25 h, 10 µM [12]: 36.9% | Activity [13]: 2.4% | fold change (FC) [14]: 0.61 | fold change (FC) [15]: 1.23 | fold change (FC) [16]: 0.42 | Activity [17]: 7.9% | fold change (FC) [18]: 0.61 | Activity [19]: 9.4% | fold change (FC) [20]: 0.01 | Activity [21]: 12.9% | remaining at 0.5 h, 1 µM [22]: 62.6% | Activity [23]: Dose-dependent effect | fraction unbound at 4 h, 10 µM [24]: < 0.01 | fold change (FC) [25]: 0.38 | fold change (FC) [26]: 0.71 | fold change (FC) [27]: 0.93 | remaining at 1 h, 10 µM [28]: 22% | Activity [29]: Tde | Activity [30]: 77.4% | Activity [31]: 83.1% | fold change (FC) [32]: 0.13 | Activity [33]: Dose-dependent effect | fold change (FC) [34]: 0.74 | Activity [35]: 8.8% | Activity [36]: 6.2%
